# Source: publication PMC8949129, “Unique Phenanthrenes from Juncus ensifolius and Their Antiproliferative and Synergistic Effects with the Conventional Anticancer Agent Doxorubicin against Human Cancer Cell Lines” (Pharmaceutics, 2022)
# Like-named read-outs stand apart in the source and are kept apart here.
# Assays:
# [1] = test system: COLO 320/MDR-LRP multidrug resistant colonic adenocarcinoma cells expressing P-gp; test: Antiproliferative MTT assay, COLO 320; conditions: for IC50: read-out: IC50 (µM) ± SD COLO 320; for SI MRC-5/COLO 320: selectivity index: IC50 in non-tumour cells / IC50 in cancer cells
# Description: (§1) The human colon adenocarcinoma cells (COLO 205 sensitive and the resistant COLO 320/MDR-LRP expressing P-gp), namely, ATCC-CCL-220.1 (COLO 320) and CCL-222 (COLO 205) were cultured in RPMI 1640 medium supplemented with 10% heat-inactivated fetal bovine serum, 2 mM L-glutamine, 1 mM Na pyruvate, and 100 mM HEPES. HeLa (ATCC® CCL-2™) human cervix carcinoma cells, and MRC-5 (ATCC® CCL-171) human embryonal lung fibroblast cells were cultured in Eagle’s minimal essential medium (EMEM, containing 4.5 g/L glucose) supplemented with a non-essential amino acid mixture, a selection of vitamins, and 10% heat-inactivated fetal bovine serum. The cell lines were detached with 0.25% trypsin and 0.02% EDTA for 5 min at 37 °C.
# (§2) In the study, human colonic adenocarcinoma cell lines (doxorubicin-sensitive COLO 205 and multidrug resistant COLO 320 colonic adenocarcinoma cells), HeLa human cervix carcinoma cells and the MRC-5 non-cancerous human embryonic lung fibroblast cell line were used to determine the effect of the compounds on cell growth. The effects of increasing concentrations of compounds on cell growth were tested in 96-well flat-bottomed microtiter plates. […] The compounds were diluted in a volume of 100 μL of the medium. The adherent cells were cultured in 96-well flat-bottomed microtiter plates using EMEM supplemented with 10% heat-inactivated fetal bovine serum. The density of the cells was adjusted to 6 × 10^3 cells in 100 µL per well, the cells were seeded prior to the assay for 24 h at 37 °C, with 5% CO2, and then the medium was removed from the plates, and fresh medium (100 µL per well) was added to the cells. The effects of increasing concentrations of compounds on cell proliferation were tested in 96-well flat-bottomed microtiter plates. The compounds were diluted in the appropriate medium; the dilutions of compounds were performed in separate plates and then added to the cells. The starting concentration of the compounds was 100 µM, and two-fold serial dilution was performed (concentration range: 100–0.19 µM). The culture plates were incubated at 37 °C for 72 h; at the end of the incubation period, 20 µL of MTT (thiazolyl blue tetrazolium bromide, Sigma) solution (from a stock solution of 5 mg/mL) was added to each well. After incubation at 37 °C for 4 h, 100 µL of sodium dodecyl sulfate (SDS) (Sigma) solution (10% in 0.01 M HCI) was added to each well, and the plates were further incubated at 37 °C overnight. Cell growth was determined by measuring the optical density (OD) at 540/630 nm, with a Multiscan EX ELISA reader (Thermo Labsystems, Cheshire, WA, USA). Inhibition of cell growth (expressed as IC50: inhibitory concentration that reduces the growth of the cells exposed to the tested compounds by 50%) was determined from the sigmoid curve where 100 − ((ODsample − ODmedium control)/(ODcell control − ODmedium control)) × 100 was plotted against the logarithm of the compound concentrations. Curves were fitted by Prism5 software (GraphPad Software Inc., San Diego, CA, USA) from four parallel experiments for each cell line. Results are expressed in terms of IC50, defined as the inhibitory dose that reduces the proliferation of the cells exposed to the tested compounds by 50% [20].
# [2] = test system: HeLa, COLO 205, and COLO 320 cancer cells; test: Antiproliferative MTT assay, summary over the tested cell lines; type: cell-based; conditions: Homo sapiens, 72 h, COLO 205, COLO 320, read-out: IC50 values, range over the cancer cell lines
# Description: as §1
# In the study, human colonic adenocarcinoma cell lines (doxorubicin-sensitive COLO 205 and multidrug resistant COLO 320 colonic adenocarcinoma cells), HeLa human cervix carcinoma cells and the MRC-5 non-cancerous human embryonic lung fibroblast cell line were used to determine the effect of the compounds on cell growth. The effects of increasing concentrations of compounds on cell growth were tested in 96-well flat-bottomed microtiter plates. […] The compounds were diluted in a volume of 100 μL of the medium. […] Cell growth was determined by measuring the optical density (OD) at 540/630 nm, with a Multiscan EX ELISA reader (Thermo Labsystems, Cheshire, WA, USA). […]
# [3] = test system: HeLa human cervix carcinoma cells; test: Antiproliferative MTT assay, HeLa; type: cell-based; conditions: for IC50: MTT, 72 h, four parallel measurements, read-out: IC50 (µM) ± SD HeLa; for SI MRC-5/HeLa: selectivity index: IC50 in non-tumour cells / IC50 in cancer cells
# Description: as §1, §2
# HeLa cells = test: Drug combination assay with doxorubicin (MTT, CompuSyn); type: cell-based, human; parameters: key to CI (combination index): CI <1 synergy, ~1 additivity, >1 antagonism; conditions: for Interaction: interaction type with doxorubicin; for CI (combination index): with doxorubicin, 72 h, average over drug ratios at IC50
# Description: The HeLa cell line was used to perform this assay. Doxorubicin (2 mg/mL, Teva Pharmaceuticals, Budapest, Hungary) was serially diluted in the horizontal direction, starting with 8.6 µM. The resistance modifier was subsequently diluted in the vertical direction, and the starting concentration was determined based on the IC50. The dilutions of doxorubicin were made in a horizontal direction in 100 µL, and the dilutions of the resistance modifiers occurred vertically in the microtiter plate in a 50 µL volume. The compounds and doxorubicin were diluted separately. […] Then, diluted compounds with a volume of 50 μL were added to each well to reach a final volume of 200 μL. The plates were incubated for 72 h at 37 °C in a CO2 incubator, and at the end of the incubation period, the cell growth was determined by the MTT staining method, as described earlier. Drug interactions were evaluated using CompuSyn software. Each dose-response curve (for individual agents as well as combinations) was fit to a linear model using the median effect equation in order to obtain the median effect value (corresponding to the IC50) and slope (m). The goodness-of-fit was assessed using the linear correlation coefficient, r, and only data from analysis with r > 0.90 are presented. The extent of the interaction between drugs was expressed using the combination index in which a CI value close to 1 indicates additivity, while CI < 1 is defined as synergy and CI > 1 as antagonism.
# [4] = test system: MRC-5 human embryonal lung fibroblast cells; test: Antiproliferative MTT assay, MRC-5 non-tumor cells; type: cell-based; conditions: four parallel measurements, read-out: IC50 (µM) ± SD MRC-5
# Description: as §1, §2
# [5] = test system: COLO 205 doxorubicin-sensitive colonic adenocarcinoma cells; test: Antiproliferative MTT assay, COLO 205; type: cell-based, human; conditions: for IC50: MTT, 72 h, four parallel measurements, read-out: IC50 (µM) ± SD COLO 205; for SI MRC-5/COLO 205: selectivity index: IC50 in non-tumour cells / IC50 in cancer cells
# Description: as §1, §2
# [6] = MTT, 72 h, four parallel measurements
molecule,measurement,setting,value
"Cc1cc(O)c2c(c1C(O)COc1cc(-c3cc(=O)c4c(O)cc(O)cc4o3)ccc1O)CCc1c-2ccc(O)c1C (centres unmarked) [Compound 1, Ensifolin A]",IC50,"[1]; Homo sapiens, COLO 320, 72 h",12.71 ± 0.05 µM
same,SI MRC-5/COLO 320,[1],1.52
same,IC50,[2],3.9 to 12.7 µM
same,IC50,"[3]; Homo sapiens, HeLa",8.25 ± 0.51 µM
same,SI MRC-5/HeLa,[3],2.34
same,Interaction,HeLa cells,strong synergism (0.1 < CI < 0.3: strong synergism)
same,CI (combination index),HeLa cells,0.272
same,IC50,"[4]; Homo sapiens, MRC5, 72 h",19.3 ± 0.54 µM
same,activity relative to positive control cisplatin,[5]; COLO 205 cells,more than ten-fold
same,IC50,"[5]; Homo sapiens, COLO 205, 72 h",3.9 µM
same,IC50,[5],3.86 ± 0.08 µM
"C=Cc1cc(C)cc2c1-c1ccc(O)c(C)c1C(O)C2 (centres unmarked) [Compound 3, 2,10-dihydroxy-1,7-dimethyl-5-vinyl-9,10-dihydrophenanthrene]",IC50,"[1]; Homo sapiens, COLO 320, 72 h",> 100 µM
same,IC50,"[3]; Homo sapiens, HeLa",> 100 µM
same,Interaction,HeLa cells,synergism (0.3 < CI < 0.7: synergism)
same,CI (combination index),HeLa cells,0.580
same,IC50,"[4]; Homo sapiens, MRC5, 72 h",> 100 µM
same,IC50,"[5]; Homo sapiens, COLO 205, 72 h",> 100 µM
"C=Cc1cc(C)cc2c1-c1ccc(O)c(COC)c1CC2 [Compound 4, Ensifolin D]",IC50,"[1]; Homo sapiens, COLO 320, 72 h",61.6 ± 9.95 µM
same,SI MRC-5/COLO 320,[1],>1.62
same,IC50,"[3]; Homo sapiens, HeLa",19.4 ± 0.33 µM
same,SI MRC-5/HeLa,[3],>5.15
same,Interaction,HeLa cells,synergism (0.3 < CI < 0.7: synergism)
same,CI (combination index),HeLa cells,0.643
same,IC50,"[4]; Homo sapiens, MRC5, 72 h",> 100 µM
same,IC50,"[5]; Homo sapiens, COLO 205, 72 h",65.6 ± 0.78 µM
same,SI MRC-5/COLO 205,[5],>1.52
"C=Cc1c(C)cc(O)c2c1CCc1c-2ccc(O)c1C [Compound 5, 2,5-dihydroxy-1,7-dimethyl-8-vinyl-9,10-dihydrophenanthrene]",IC50,"[1]; Homo sapiens, COLO 320, 72 h",25.2 ± 0.92 µM
same,SI MRC-5/COLO 320,[1],1.76
same,IC50,[2],25.2 to 31.2 µM
same,IC50,"[3]; Homo sapiens, HeLa",27.5 ± 1.19 µM
same,SI MRC-5/HeLa,[3],1.61
same,Interaction,HeLa cells,very strong synergism (CI < 0.1: very strong synergism)
same,IC50,"[4]; Homo sapiens, MRC5, 72 h",44.3 ± 0.61 µM
same,IC50,"[5]; Homo sapiens, COLO 205, 72 h",31.2 ± 0.66 µM
same,SI MRC-5/COLO 205,[5],1.42
"C=Cc1c(CO)cc(O)c2c1CCc1c-2ccc(O)c1C [Compound 6, Ensifolin F]",IC50,"[1]; Homo sapiens, COLO 320, 72 h",93.71 ± 0.14 µM
same,SI MRC-5/COLO 320,[1],>1.07
same,IC50,"[3]; Homo sapiens, HeLa",74.3 ± 2.98 µM
same,SI MRC-5/HeLa,[3],>1.35
same,Interaction,HeLa cells,strong synergism (0.1 < CI < 0.3: strong synergism)
same,CI (combination index),HeLa cells,0.159
same,IC50,"[4]; Homo sapiens, MRC5, 72 h",> 100 µM
same,IC50,"[5]; Homo sapiens, COLO 205, 72 h",> 100 µM
"CC(=O)c1c(C)cc(O)c2c1CCc1c-2ccc(O)c1C [Compound 7, Ensifolin G]",IC50,"[1]; Homo sapiens, COLO 320, 72 h",> 100 µM
same,IC50,"[3]; Homo sapiens, HeLa",75.6 ± 0.94 µM
same,SI MRC-5/HeLa,[3],>1.32
same,Interaction,HeLa cells,synergism (0.3 < CI < 0.7: synergism)
same,CI (combination index),HeLa cells,0.568
same,IC50,"[4]; Homo sapiens, MRC5, 72 h",> 100 µM
same,IC50,"[5]; Homo sapiens, COLO 205, 72 h",> 100 µM
"C=Cc1c(C)cc(O)c2c1CCc1c-2cc(-c2cc3c(c(C)c2O)CCc2c(C=C)c(C)cc(O)c2-3)c(O)c1C [Compound 10, Ensifolin J]",IC50,"[1]; Homo sapiens, COLO 320, 72 h",42.8 ± 1.28 µM
same,SI MRC-5/COLO 320,[1],1.35
same,IC50,"[3]; Homo sapiens, HeLa",33.5 ± 1.89 µM
same,SI MRC-5/HeLa,[3],1.72
same,Interaction,HeLa cells,synergism (0.3 < CI < 0.7: synergism)
same,CI (combination index),HeLa cells,0.454
same,IC50,"[4]; Homo sapiens, MRC5, 72 h",57.8 ± 1.32 µM
same,IC50,"[5]; Homo sapiens, COLO 205, 72 h",44.5 ± 1.22 µM
same,SI MRC-5/COLO 205,[5],1.30
"C=Cc1c(C)cc(O)c2c1CCc1c-2cc(-c2c(O)c(C)c(C=C)c3ccc4c(C)c(O)ccc4c23)c(O)c1C [Compound 11, Ensifolin K]",IC50,"[1]; Homo sapiens, COLO 320, 72 h",37.8 ± 1.05 µM
same,SI MRC-5/COLO 320,[1],0.88
same,IC50,"[3]; Homo sapiens, HeLa",29.5 ± 0.31 µM
same,SI MRC-5/HeLa,[3],1.12
same,Interaction,HeLa cells,strong synergism (0.1 < CI < 0.3: strong synergism)
same,CI (combination index),HeLa cells,0.112
same,IC50,"[4]; Homo sapiens, MRC5, 72 h",33.16 ± 0.05 µM
same,IC50,"[5]; Homo sapiens, COLO 205, 72 h",31.4 ± 0.72 µM
same,SI MRC-5/COLO 205,[5],1.06
"C=Cc1c(C)cc(O)c2c1CCc1c-2cc(-c2c(C)c(C=C)c3c(c2O)-c2ccc(O)c(C)c2CC3)c(O)c1C [Compound 12, Ensifolin L]",IC50,"[1]; Homo sapiens, COLO 320, 72 h",37.4 ± 2.13 µM
same,SI MRC-5/COLO 320,[1],1.35
same,IC50,"[3]; Homo sapiens, HeLa",30.22 ± 0.21 µM
same,SI MRC-5/HeLa,[3],1.67
same,Interaction,HeLa cells,strong synergism (0.1 < CI < 0.3: strong synergism)
same,CI (combination index),HeLa cells,0.120
same,IC50,"[4]; Homo sapiens, MRC5, 72 h",50.4 ± 1.3 µM
same,IC50,"[5]; Homo sapiens, COLO 205, 72 h",26.9 ± 1.19 µM
same,SI MRC-5/COLO 205,[5],1.87
"C=Cc1cc(C)cc2c1-c1ccc(O)c(C)c1CC2 [Compound 14, 2-hydroxy-1,7-dimethyl-5-vinyl-9,10-dihydrophenanthrene]",IC50,"[1]; Homo sapiens, COLO 320, 72 h",52.4 ± 0.77 µM
same,SI MRC-5/COLO 320,[1],1.16
same,IC50,"[3]; Homo sapiens, HeLa",58.1 ± 1.2 µM
same,SI MRC-5/HeLa,[3],1.05
same,Interaction,HeLa cells,synergism (0.3 < CI < 0.7: synergism)
same,CI (combination index),HeLa cells,0.579
same,IC50,"[4]; Homo sapiens, MRC5, 72 h",60.89 ± 0.25 µM
same,IC50,"[5]; Homo sapiens, COLO 205, 72 h",32.9 ± 0.59 µM
same,SI MRC-5/COLO 205,[5],1.85
"C#Cc1c(C)c(O)cc2c1CCc1c-2ccc(O)c1C [Compound 16, juncatrin B]",IC50,[1]; [6],32.5 ± 0.75 µM
same,SI MRC-5/COLO 320,[1],0.80
same,IC50,[3],6.65 ± 0.1 µM
same,SI MRC-5/HeLa,[3],3.91
same,Interaction,HeLa cells,synergism (0.3 < CI < 0.7: synergism)
same,CI (combination index),HeLa cells,0.682
same,IC50,[4]; 72 h,26 ± 0.85 µM
same,IC50,[5],34.4 ± 0.57 µM
same,SI MRC-5/COLO 205,[5],0.76
"O=Cc1ccc(O)cc1 [Compound 18, 4-hydroxybenzaldehyde]",IC50,"[1]; Homo sapiens, COLO 320, 72 h",> 100 µM
same,IC50,"[3]; Homo sapiens, HeLa",> 100 µM
same,IC50,"[4]; Homo sapiens, MRC5, 72 h",> 100 µM
same,IC50,"[5]; Homo sapiens, COLO 205, 72 h",> 100 µM
"O=c1cc(-c2ccc(O)c(O)c2)oc2cc(O)cc(O)c12 [Compound 19, luteolin]",IC50,"[1]; Homo sapiens, COLO 320, 72 h",> 100 µM
same,IC50,"[3]; Homo sapiens, HeLa",> 100 µM
same,IC50,"[4]; Homo sapiens, MRC5, 72 h",> 100 µM
same,IC50,"[5]; Homo sapiens, COLO 205, 72 h",> 100 µM
"N.N.[Cl][Pt][Cl] [cisplatin, reference compound]",IC50,[3],3.62 ± 0.16 µM
same,IC50,[4]; 72 h,2.36 ± 0.33 µM
same,IC50,[5],41.7 ± 1.62 µM
COc1cccc2c1C(=O)c1c(O)c3c(c(O)c1C2=O)C[C@@](O)(C(=O)CO)C[C@@H]3O[C@H]1C[C@H](N)[C@H](O)[C@H](C)O1 [doxorubicin],IC50,"[1]; Homo sapiens, COLO 320, 72 h",0.22 ± 0.004 µM
same,IC50,"[3]; Homo sapiens, HeLa",0.04 ± 0.004 µM
same,IC50,"[4]; Homo sapiens, MRC5, 72 h",0.53 ± 0.06 µM
same,IC50,"[5]; Homo sapiens, COLO 205, 72 h",1.36 ± 0.36 µM
sylvaticin A [Compound 17],IC50,[1]; [6],57.7 ± 0.92 µM
same,SI MRC-5/COLO 320,[1],>1.73
same,IC50,[3],10.56 ± 0.09 µM
same,SI MRC-5/HeLa,[3],>9.47
same,Interaction,HeLa cells,strong synergism (0.1 < CI < 0.3: strong synergism)
same,CI (combination index),HeLa cells,0.279
same,IC50,[4]; 72 h,> 100 µM
same,IC50,[5],56.7 ± 0.75 µM
same,SI MRC-5/COLO 205,[5],>1.76
